Data reported in patent publication EP4806912A1, “DUAL AGONIST COMPOUND” (Chengdu Aoda Biotechnology Co., Ltd, priority 2023, dated 2025).

What was measured:
GLP-1R = molecular target: T1, GLP-1R (Homo sapiens, UniProt P43220); test: GLP-1 activity test (cAMP, chemiluminescence, CHO-K1 cell line stably expressing GLP-1R); assay type: cell-based; settings: relative luminescence units, read-out: GLP-1 activity [EC50(pmol)]
T1 construct: expressed in transfected cells; host or cells: CHO-K1
Procedure: (§1) Upon stimulation by a specific agonist, GLP-1R activates the intracellular adenylate cyclase signaling pathway, resulting in an increase in cAMP levels and ultimately leading to insulin production and secretion. A cell line stably transfected with GLP-1R was stimulated with test compounds, thereby rapidly increasing intracellular cAMP levels. The relative luminescence units (RLU) of cells stimulated at various concentrations were measured by a chemiluminescence method, and the EC50 value of the agonist was calculated accordingly. This activity test method is currently a commonly used method for evaluating GLP-1 receptor agonist activity both domestically and internationally.
A CHO-K1 cell line stably expressing GLP-1R was used. The stable cells were stimulated with agonists at different concentrations, and the relative luminescence units after stimulation at each concentration were measured to calculate the EC50 value of the agonist.

GCG-R = molecular target: T2, GCG-R (Homo sapiens, UniProt P47871); test: GCG activity test (cAMP, chemiluminescence, CHO-K1 cell line stably expressing GCG-R); assay type: cell-based; settings: relative luminescence units, read-out: GCG activity [EC50(nmol)]
T2 construct: expressed in transfected cells; host or cells: CHO-K1
Procedure: as §1, with “agonist, GCG-R” for “agonist, GLP-1R”, “with GCG-R” for “with GLP-1R”, “activity assay” for “activity test”, “evaluating GCG” for “evaluating GLP-1”
A CHO-K1 cell line stably expressing GCG-R was used. The stable cells were stimulated with agonists at different concentrations, and the relative luminescence units after stimulation at each concentration were measured to calculate the EC50 value of the agonist.

[1] = Preliminary pharmacokinetic evaluation in cynomolgus monkeys (plasma, LC-MS); assay type: in vivo; settings: for half-life: cynomolgus monkey, male cynomolgus monkeys, subcutaneously (SC), 0.2 mg/kg, plasma; for half-lives: cynomolgus monkeys, administered subcutaneously
Procedure: Among the above compounds, the principle of modification for long-acting was essentially the same.
The test animals were male cynomolgus monkeys. Two animals were used for each compound. The compounds were administered subcutaneously at a dose of 0.2 mg/kg. Blood samples were collected via intravenous sampling prior to administration (0 h) and at 1 h, 2 h, 3 h, 4 h, 8 h, 12 h, 18 h, 24 h, 48 h, 96 h, 144 h, and 168 h after administration. Plasma samples were obtained by centrifugation. The plasma concentrations of the compounds were respectively determined by liquid chromatography - mass spectrometry (LC-MS).

T2 sequence (P47871 26-477, species assumed): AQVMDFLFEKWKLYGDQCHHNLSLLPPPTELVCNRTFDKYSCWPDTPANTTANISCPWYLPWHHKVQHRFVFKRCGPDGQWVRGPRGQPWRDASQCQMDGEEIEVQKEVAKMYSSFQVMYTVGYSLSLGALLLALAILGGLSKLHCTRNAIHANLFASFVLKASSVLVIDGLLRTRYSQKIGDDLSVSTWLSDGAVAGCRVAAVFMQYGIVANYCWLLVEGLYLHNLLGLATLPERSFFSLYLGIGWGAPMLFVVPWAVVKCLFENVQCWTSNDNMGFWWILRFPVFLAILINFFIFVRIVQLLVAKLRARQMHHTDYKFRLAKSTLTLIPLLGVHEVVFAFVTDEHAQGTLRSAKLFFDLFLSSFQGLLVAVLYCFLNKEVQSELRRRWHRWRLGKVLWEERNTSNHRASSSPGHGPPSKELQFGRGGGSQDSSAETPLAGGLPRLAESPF
T1 sequence (P43220 24-463, species assumed): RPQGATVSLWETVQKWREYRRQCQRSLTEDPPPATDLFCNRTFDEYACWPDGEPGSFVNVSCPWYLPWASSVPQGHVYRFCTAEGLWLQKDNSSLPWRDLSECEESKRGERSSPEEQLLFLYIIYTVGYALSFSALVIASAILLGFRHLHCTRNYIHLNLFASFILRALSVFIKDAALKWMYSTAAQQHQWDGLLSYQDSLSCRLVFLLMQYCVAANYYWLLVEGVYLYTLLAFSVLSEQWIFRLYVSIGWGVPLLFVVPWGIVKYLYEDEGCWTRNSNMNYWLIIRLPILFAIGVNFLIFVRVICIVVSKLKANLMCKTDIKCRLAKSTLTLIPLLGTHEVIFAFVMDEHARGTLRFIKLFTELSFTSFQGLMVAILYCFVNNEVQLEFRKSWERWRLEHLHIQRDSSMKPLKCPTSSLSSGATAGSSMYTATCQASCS

SMILES | EC50 (GLP-1R) [pM] | EC50 (GCG-R) [pM] | half-life [1] [h] | half-lives [1]
CC(C)C[C@H](NC(=O)[C@H](CC(C)C)NC(=O)[C@H](Cc1c[nH]c2ccccc12)NC(=O)[C@H](CCC(=O)O)NC(=O)[C@@H](NC(=O)[C@H](Cc1ccccc1)NC(=O)[C@H](CCC(=O)O)NC(=O)[C@H](CCCCNC(=O)COCCOCCOCCOCCOCCNC(=O)CCC[C@H](NC(=O)CCCCCCCCCCCCCCCCCCC(=O)O)C(=O)O)NC(=O)[C@H](C)NC(=O)[C@H](CCCCN)NC(=O)[C@H](CCCCN)NC(=O)[C@H](CCC(=O)O)NC(=O)[C@H](CC(=O)O)NC(=O)[C@H](CC(C)C)NC(=O)[C@H](Cc1ccc(O)cc1)NC(=O)[C@H](CCCCN)NC(=O)[C@H](CO)NC(=O)[C@H](Cc1ccc(O)cc1)NC(=O)[C@H](CC(=O)O)NC(=O)[C@H](CO)NC(=O)[C@@H](NC(=O)C(C)(Cc1ccccc1F)NC(=O)[C@@H](NC(=O)CNC(=O)[C@H](CCC(N)=O)NC(=O)C(C)(C)NC(=O)[C@@H](N)Cc1c[nH]cn1)[C@@H](C)O)[C@@H](C)O)C(C)C)C(=O)N[C@@H](CCC(=O)O)C(=O)NCCCCC(=O)N1CCC[C@H]1C(=O)N[C@@H](CO)C(=O)N[C@@H](CO)C(=O)NCC(=O)N[C@@H](C)C(=O)N1CCC[C@H]1C(=O)N1CCC[C@H]1C(=O)N1CCC[C@H]1C(=O)N[C@@H](CO)C(N)=O (some centres unmarked) [Compound 10] | 75.5 | 1200 | 136 | greater than 100 hours
CC(C)C[C@H](NC(=O)[C@H](CC(C)C)NC(=O)[C@H](Cc1c[nH]c2ccccc12)NC(=O)[C@H](CCC(=O)O)NC(=O)[C@@H](NC(=O)[C@H](Cc1ccccc1)NC(=O)[C@H](CCC(=O)O)NC(=O)[C@H](CCCCNC(=O)COCCOCCOCCOCCOCCNC(=O)CCC[C@H](NC(=O)CCCCCCCCCCCCCCCCCCC(=O)O)C(=O)O)NC(=O)[C@H](C)NC(=O)[C@H](CCCCN)NC(=O)[C@H](CCCCN)NC(=O)[C@H](CCC(=O)O)NC(=O)[C@H](CC(=O)O)NC(=O)[C@H](CC(C)C)NC(=O)[C@H](Cc1ccc(O)cc1)NC(=O)[C@H](CCCCN)NC(=O)[C@H](CO)NC(=O)[C@H](Cc1ccc(O)cc1)NC(=O)[C@H](CC(=O)O)NC(=O)[C@H](CO)NC(=O)[C@@H](NC(=O)C(C)(Cc1ccccc1)NC(=O)[C@@H](NC(=O)CNC(=O)[C@H](CCC(N)=O)NC(=O)C(C)(C)NC(=O)[C@@H](N)Cc1c[nH]cn1)[C@@H](C)O)[C@@H](C)O)C(C)C)C(=O)N[C@@H](CCC(=O)O)C(=O)NCCCCC(=O)N1CCC[C@H]1C(=O)N[C@@H](CO)C(=O)N[C@@H](CO)C(=O)NCC(=O)N[C@@H](C)C(=O)N1CCC[C@H]1C(=O)N1CCC[C@H]1C(=O)N1CCC[C@H]1C(=O)N[C@@H](CO)C(N)=O (some centres unmarked) [Compound 6] | 80.9 | 2100 | 125 | greater than 100 hours
